ChEMBL document CHEMBL1136532, “Novel water soluble 2,6-dimethoxyphenyl ester derivatives with intravenous anaesthetic activity” (Bioorg Med Chem Lett, 2003)
pIC50: −log10 of the molar value. Blank lines part the entries; values can stand above or below the compound they belong to.

Columns and labels:
Mus musculus [1] = test: Anesthetic activity determined as hypnotic dose by intravenous administration in male MF-1 mice; type: functional
Mus musculus [2] = test: Anesthetic activity as hypnotic dose by intravenous administration in male MF-1 mice; type: functional
Mus musculus [3] = test: Anesthetic activity as hypnotic dose by intravenous administration in male MF-1 mice; Convulsant; type: functional, organism-based
[4] = biological target: GABA-A receptor; anion channel; test: Inhibition of [35S]TBPS binding to GABA-A receptor rat whole brain membranes; type: cell membranes
Rattus norvegicus [5] = test: Dose for 60% Mean burst suppression ratio (BSR) after the start of a 10 s iv bolus injection of compound; type: functional
Rattus norvegicus [6] = test: Time to righting for Mean burst suppression ratio (BSR) after the start of a 10 s iv bolus injection of compound; type: functional
Rattus norvegicus [7] = species: Rattus norvegicus; test: (§1) Parameter value extracted from closed loop infusions to maintain 60% Mean burst suppression ratio (BSR) for 1 h periods; type: functional
Rattus norvegicus [8] = test: Time to 30% Mean burst suppression ratio (BSR) after the start of a 10 s iv bolus injection of compound; type: functional
Rattus norvegicus [9] = species: Rattus norvegicus; test: Parameter value extracted from closed loop infusions to maintain 60% Mean burst suppression ratio (BSR) for 1 hr periods; type: functional
Rattus norvegicus [10] = test: Time to 1st 0.25 s BS epoch (s) of Mean burst suppression ratio (BSR) after the start of a 10 s iv bolus injection of compound; type: functional
Rattus norvegicus [11] = test: Time for Mean burst suppression ratio (BSR) after the start of a 10 s iv bolus injection of compound; type: functional
Rattus norvegicus [12] = species: Rattus norvegicus; test: as §1; type: functional, organism-based

SMILES: CCOCCC(C(=O)Oc1c(OC)cccc1OC)N(CCOCC)CCOCC (configuration not stated)
HD50 (Mus musculus [1]): 47 µM/kg

SMILES: COCCCN(CCCOC)C(COC)C(=O)Oc1c(OC)cccc1OC (configuration not stated)
HD50 (Mus musculus [1]): 46 µM/kg

SMILES: CCOCCN(CCOCC)C(COC)C(=O)Oc1c(OC)cccc1OC (configuration not stated)
HD50 (Mus musculus [1]): 25 µM/kg

SMILES: COc1cccc(OC)c1OC(=O)C(CN1CCCOCC1)N1CCCOCC1 (configuration not stated)
HD50 (Mus musculus [2]): <25 µM/kg

SMILES: CCOCCC(C(=O)Oc1c(OC)cccc1OC)N1CCCCCC1 (configuration not stated)
HD50 (Mus musculus [1]): 25 µM/kg

SMILES: C=CCN1CCN(Cc2ccccc2)C(C(=O)Oc2c(OC)cccc2OC)C1 (configuration not stated)
HD50 (Mus musculus [2]): 31 µM/kg

SMILES: CCC(=O)N1CCN(Cc2ccccc2)C(C(=O)Oc2c(OC)cccc2OC)C1 (configuration not stated)
HD50 (Mus musculus [2]): 34 µM/kg

SMILES: COc1cccc(OC)c1OC(=O)C(CN1CCCCC1)N1CCOCC1 (configuration not stated)
HD50 (Mus musculus [2]): 15 µM/kg

SMILES: COCC(C(=O)Oc1c(OC)cccc1OC)N1CCOCC1 (configuration not stated)
HD50 (Mus musculus [1]): 54 µM/kg

SMILES: COCC(C(=O)Oc1c(OC)cccc1OC)N1CCCCC1 (configuration not stated)
HD50 (Mus musculus [1]): 146 µM/kg

SMILES: COc1cccc(OC)c1OC(=O)C(CN1CCOCC1)N1CCc2ccccc2C1 (configuration not stated)
HD50 (Mus musculus [2]): 21 µM/kg

SMILES: COc1cccc(OC)c1OC(=O)C(CN1CCOCC1)N1CCOCC1 (configuration not stated)
HD50 (Mus musculus [2]): 38 µM/kg

SMILES: COCCC(C(=O)Oc1c(OC)cccc1OC)N1CCCCCC1 (configuration not stated)
HD50 (Mus musculus [1]): 17 µM/kg

SMILES: CCOCCC(C(=O)Oc1c(OC)cccc1OC)N(CCOC)CCOC (configuration not stated)
HD50 (Mus musculus [1]): 27 µM/kg

SMILES: COc1cccc(OC)c1OC(=O)C(CN1CCSCC1)N1CCOCC1 (configuration not stated)
HD50 (Mus musculus [2]): 17 µM/kg

SMILES: COCC(C(=O)Oc1c(OC)cccc1OC)N1CCSCC1 (configuration not stated)
HD50 (Mus musculus [1]): 21 µM/kg

SMILES: COc1cccc(OC)c1OC(=O)C1CN(C)CCN1Cc1ccccc1 (configuration not stated)
HD50 (Mus musculus [2]): 122 µM/kg

SMILES: CCN1CCN(Cc2ccccc2)C(C(=O)Oc2c(OC)cccc2OC)C1 (configuration not stated)
HD50 (Mus musculus [2]): 24 µM/kg

SMILES: COCCC(C(=O)Oc1c(OC)cccc1OC)N1CCOCC1 (configuration not stated)
HD50 (Mus musculus [1]): 38 µM/kg

SMILES: CCOCCN(CCOCC)C(CCOC)C(=O)Oc1c(OC)cccc1OC (configuration not stated)
HD50 (Mus musculus [1]): 28 µM/kg

SMILES: COCCC(C(=O)Oc1c(OC)cccc1OC)N1C=CCCC1 (configuration not stated)
HD50 (Mus musculus [1]): 22 µM/kg

SMILES: COCCC(C(=O)Oc1c(OC)cccc1OC)N1CCC(OC)CC1 (configuration not stated)
HD50 (Mus musculus [1]): 21 µM/kg

SMILES: COCCC(C(=O)Oc1c(OC)cccc1OC)N(CCOC)CCOC (configuration not stated)
HD50 (Mus musculus [1]): 27 µM/kg

SMILES: CCOCC(C(=O)Oc1c(OC)cccc1OC)N1CCCOCC1 (configuration not stated)
HD50 (Mus musculus [1]): 20 µM/kg

SMILES: CCOCCC(C(=O)Oc1c(OC)cccc1OC)N1CCOCC1 (configuration not stated)
HD50 (Mus musculus [1]): 36 µM/kg

SMILES: COc1cccc(OC)c1OC(=O)C(CN1CCSCC1)N1CCSCC1 (configuration not stated)
HD50 (Mus musculus [2]): 15 µM/kg

SMILES: COCCN(CCOC)C(CN1CCOCC1)C(=O)Oc1c(OC)cccc1OC (configuration not stated)
HD50 (Mus musculus [2]): 75 µM/kg

SMILES: COc1cccc(OC)c1OC(=O)C(CN1CCOCC1)N1CCSCC1 (configuration not stated)
HD50 (Mus musculus [2]): 19 µM/kg

SMILES: COCCC(C(=O)Oc1c(OC)cccc1OC)N1CCCCC1 (configuration not stated)
HD50 (Mus musculus [1]): 22 µM/kg

SMILES: CCOCCN(CCOCC)CC(C(=O)Oc1c(OC)cccc1OC)N(CCOCC)CCOCC (configuration not stated)
HD50 (Mus musculus [3]): Convulsant

SMILES: CCOCCN(CCOCC)CC(C(=O)Oc1c(OC)cccc1OC)N1CCOCC1 (configuration not stated)
HD50 (Mus musculus [3]): Convulsant

SMILES: COCCN(CCOC)CC(C(=O)Oc1c(OC)cccc1OC)N(CCOC)CCOC (configuration not stated)
HD50 (Mus musculus [3]): Convulsant

SMILES: COc1cccc(OC)c1OC(=O)C1CNCCN1Cc1ccccc1 (configuration not stated)
HD50 (Mus musculus [3]): Convulsant

pIC50 [4]: 4.46
SMILES: CCOCCC(C(=O)Oc1c(OC)cccc1OC)N1CCCOCC1 (racemic)

pIC50 [4]: 4.16
SMILES: COCCC(C(=O)Oc1c(OC)cccc1OC)N1CCCOCC1 (racemic)
HD50 (Mus musculus [1]): 20 µM/kg

pIC50 [4]: < 4.00
SMILES: CCOCCC(C(=O)Oc1c(OC)cccc1OC)N1CCCOCC1 (single isomer, unassigned)
HD50 (Mus musculus [1]): 48 µM/kg

pIC50 [4]: 4.45
SMILES: COCC(C(=O)Oc1c(OC)cccc1OC)N1CCCOCC1 (single isomer, unassigned; form 1) [listing 1 of 2 here]
Dose (Rattus norvegicus [5]): 11.4 µM/kg | Time (Rattus norvegicus [6]): 3.3 min | Time to righting (Rattus norvegicus [7]): 6.8 min | Time (Rattus norvegicus [8]): 1.3 min | Infusion rate (Rattus norvegicus [9]): 5 µM/min/kg | Time to 30% BSR (Rattus norvegicus [9]): 2.4 min | Time (Rattus norvegicus [10]): 12.9 s | HD50 (Mus musculus [1]): 16 µM/kg | Time (Rattus norvegicus [11]): 32 s

pIC50 [4]: < 4.00
SMILES: COCCC(C(=O)Oc1c(OC)cccc1OC)N1CCCOCC1 (single isomer, unassigned; form 1)
HD50 (Mus musculus [1]): 30 µM/kg

SMILES: COCC(C(=O)Oc1c(OC)cccc1OC)N1CCCOCC1 (single isomer, unassigned; form 1) [listing 2 of 2 here]
Stability of BSR (Rattus norvegicus [12]): 2.5%

pIC50 [4]: 4.01
SMILES: COCC(C(=O)Oc1c(OC)cccc1OC)N1CCCOCC1 (single isomer, unassigned; form 2)
HD50 (Mus musculus [1]): 40 µM/kg

pIC50 [4]: 4.49
SMILES: COCCC(C(=O)Oc1c(OC)cccc1OC)N1CCCOCC1 (single isomer, unassigned; form 2)

SMILES: CCOCCC(C(=O)Oc1c(OC)cccc1OC)N1CCCOCC1 (stereo in doubt)
HD50 (Mus musculus [1]): 15 µM/kg

pIC50 [4]: 4.46
SMILES: COCC(C(=O)Oc1c(OC)cccc1OC)N1CCCOCC1 (stereo in doubt; 26)
HD50 (Mus musculus [1]): 30 µM/kg

SMILES: COCCC(C(=O)Oc1c(OC)cccc1OC)N1CCCOCC1 (stereo in doubt; 31)
HD50 (Mus musculus [1]): 15 µM/kg

SMILES: CCOCCC(C(=O)Oc1c(OC)cccc1OC)N1CCCOCC1 (stereo in doubt; 39)
HD50 (Mus musculus [1]): 23 µM/kg

SMILES: CC[C@H](C(=O)Oc1c(OC)cc(C)cc1OC)N(CCOC)CCOC [ORG-24447]
HD50 (Mus musculus [2]): 22 µM/kg | pIC50 [4]: 4.53

SMILES: CC(C)c1cccc(C(C)C)c1O [PROPOFOL]
Dose (Rattus norvegicus [5]): 41 µM/kg | Time (Rattus norvegicus [6]): 5.5 min | Time (Rattus norvegicus [8]): 1.5 min | HD50 (Mus musculus [2]): 68 µM/kg | Time (Rattus norvegicus [10]): 13.1 s | Time (Rattus norvegicus [11]): 30 s
